Experimental findings from ChEMBL document CHEMBL1201862, “PubChem BioAssay data set” (2004) are described below.

Test in all cases: growth of human tumour cells (NCI), 48 h
Test [1] has as its system NCI-H226.
For test [2], the system named is SR.
Test [3] has as its system NCI-H460.
Test [4] concerns UACC-257.
The subject of test [5] is OVCAR-4.
For test [6], the system named is ACHN.
Test [7] deals with CCRF-CEM.
The test system of test [8] is NCI-H522.
Test [9] deals with NCI-H23.
Test [10] concerns A549.
For test [11], the system named is K562.
Test [12] relates to 786-0.
Test [13] concerns HCC 2998.
Test [14] deals with M14.
Test [15] concerns SK-MEL-2.
In test [16] the test system is HT-29.
Test [17] relates to MCF7.
Test [18] relates to PC-3.
Test [19] relates to DU-145.
Test [20] deals with T47D.

Structures are written as SMILES.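 In this assay, cells in 96-well plates receive the compound at five concentrations for 48 hours. Endpoints are linearly interpolated between the surrounding concentrations. Here, GI50 denotes the concentration required for 50% inhibition of growth.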 Activity calls are given as the source filed them. Cut-off read from the data, not from the text of the source: active = GI50 up to about 1.1 µM and inactive = higher.

As to `Oc1c(C(Nc2cccc3cccnc23)c2ccccc2)ccc2cccnc12` (stereo unspecified), the GI50 in test [1] is 1.73 µM (inactive); in test [2], 2.61 µM (inactive); in [3] it was 3.33 µM (inactive); in [4], 4.38 µM (inactive); in [5], 17.5 µM (inactive); in [6], 3.91 µM (inactive). Further, the GI50 in test [7] was 1.57 µM (inactive); in test [8] it was 16.8 µM (inactive); in [9], 5.43 µM (inactive); in test [10], 6.04 µM (inactive); in test [11], 3.32 µM (inactive); in test [12], 4.07 µM (inactive). Besides, the GI50 in [13] is 14.2 µM (inactive).

As to `CC(C)OP(=O)(OC(C)C)/C(=N/Nc1ccc([N+](=O)[O-])cc1)Nc1ccc(N/C(=N\Nc2ccc([N+](=O)[O-])cc2)P(=O)(OC(C)C)OC(C)C)cc1`, the GI50 was 74.1 µM (inactive) in test [1]; 5.66 µM (inactive) in test [2]; 14.5 µM (inactive) in test [14]; 2.31 µM (inactive) in [3]; 37.2 µM (inactive) in [4]; 35.7 µM (inactive) in test [5]. Moreover, the GI50 is 23.4 µM (inactive) in [6]; 2.95 µM (inactive) in test [7]; 48 µM (inactive) in [15]; 6.22 µM (inactive) in test [8]; 13.7 µM (inactive) in test [9]; 4.91 µM (inactive) in [10]. For the same molecule, the GI50 in test [11] was 4.79 µM (inactive); in [13], 2.65 µM (inactive).

`COC(=O)C1=C(C(=O)OC)C23CC1C1C(C(=O)OC)=C(C(=O)OC)C12C1C=CC3C2C(=O)OC(=O)C21` (stereo unspecified): the GI50 is 41.3 µM (inactive) in [14]; 34.7 µM (inactive) in test [3]; 45.2 µM (inactive) in [4]; 39.4 µM (inactive) in test [5]; 53.5 µM (inactive) in [6]; 40.4 µM (inactive) in [7]. In addition, the GI50 in [15] was 35 µM (inactive); in test [8], 22.4 µM (inactive); in [9] it was 37.8 µM (inactive); in [10], 49 µM (inactive); in test [16], 68.7 µM (inactive); in test [11], 24 µM (inactive). The GI50 in test [12] was 94.2 µM (inactive); in test [13] it was 66.7 µM (inactive).

`COC(=O)C(NC(=O)c1ccccc1)C(c1c(O)cc(O)cc1O)P(=O)(OC)OC` (stereo unspecified): the GI50 in test [1] was > 100 µM (inactive); in test [2] it was > 100 µM (inactive); in [14], 48.8 µM (inactive); in [3], 95.3 µM (inactive); in test [4], > 100 µM (inactive); in [5], > 100 µM (inactive). Besides, the GI50 was > 100 µM (inactive) in test [6]; 32 µM (inactive) in test [7]; > 100 µM (inactive) in test [15]; > 100 µM (inactive) in test [8]; 69.5 µM (inactive) in [9]; > 100 µM (inactive) in test [10]. Further, the GI50 in [16] is > 100 µM (inactive); in test [11] it was 27.2 µM (inactive); in [13], > 100 µM (inactive).

Regarding `O=C1C[C@@H]2[C@@H](C=CC23CCCC3)N1O`, the GI50 in test [1], in test [14], in test [3], in [4], in test [5] and in test [6] was > 100 µM (inactive) each time. Besides, the GI50 in [7], in test [15], in [8], in test [9], in [10] and in test [16] was > 100 µM (inactive) throughout. Besides, the GI50 in test [11], in test [12] and in test [13] was > 100 µM (inactive) in each case.

As for `Nc1ncnc2c1cnn2Cc1ccc(Cl)cc1`, the GI50 in test [1], in test [14], in [17], in test [3], in test [4] and in [18] was > 100 µM (inactive) in each case. Further, the GI50 in test [5] is > 100 µM (inactive); in [19] it was > 100 µM (inactive); in test [20] it was > 100 µM (inactive); in [6], > 100 µM (inactive); in test [7], > 100 µM (inactive); in test [8], 92 µM (inactive). Also, the GI50 in test [9], in [10], in [16], in [11] and in test [13] was > 100 µM (inactive) each time.

For `C=C1C(=O)O[C@@H]2[C@H](O)[C@@H](C)[C@@H]3C=CC(=O)[C@@]3(C)[C@H](OC(=O)C=C(C)C)[C@H]12`, the GI50 in test [1] is 2 µM (inactive); in [17], 0.56 µM (active); in [3] it was 2.11 µM (inactive); in test [4], 1.59 µM (inactive); in test [5], 1.98 µM (inactive); in test [7], 0.183 µM (active). For the same molecule, the GI50 in [15] is 1.32 µM (inactive); in test [8], 0.179 µM (active); in [9] it was 1.35 µM (inactive); in test [10] it was 2.94 µM (inactive); in test [16], 1.26 µM (inactive); in test [11], 0.199 µM (active). Moreover, the GI50 in [13] was 1.79 µM (inactive).

As to `O=S(O)CCCCCSSSCCCCCS(=O)O`, the GI50 in [2] is 3.48 µM (inactive); in test [14], 43.7 µM (inactive); in test [3], > 100 µM (inactive); in test [4], 24.5 µM (inactive); in test [5], 52 µM (inactive); in test [6], > 100 µM (inactive). Further, the GI50 in [7] was 6.59 µM (inactive); in test [15], 25.9 µM (inactive); in test [8] it was 24 µM (inactive); in test [9], 29.8 µM (inactive); in test [16], > 100 µM (inactive); in [11] it was 14.6 µM (inactive). For the same molecule, the GI50 in [13] is > 100 µM (inactive).

In the case of `Nc1nc(=O)c2c([nH]1)NCC(CNc1ccc(C(=O)N[C@@H](CCC(=O)O)C(=O)O)cc1)N2C=O` (stereo partly specified) [LEUCOVORIN CALCIUM], the GI50 in [1] is 81.1 µM (inactive); in test [17] it was > 125 µM (inactive); in test [3], > 125 µM (inactive); in test [4], > 125 µM (inactive); in [5] it was > 125 µM (inactive); in test [7] it was 39.5 µM (inactive). Moreover, the GI50 in test [15] is 40.4 µM (inactive); in [8], > 125 µM (inactive); in test [9] it was > 125 µM (inactive); in [10] it was > 125 µM (inactive); in test [16] it was > 125 µM (inactive); in test [11] it was 39.5 µM (inactive). Also, the GI50 in test [13] is > 125 µM (inactive).

As to `CCCCCCCCCCCCCCCCCCOP(=O)([O-])OCC[N+](C)(C)C` [OCTADECYLPHOSPHONOCHOLINE], the GI50 in [1] was 0.787 µM (active); in test [17], 0.382 µM (active); in test [3] it was 0.41 µM (active); in test [4] it was 1.19 µM (inactive); in test [20], < 0.0209 µM (active); in [6] it was < 0.0488 µM (active). The GI50 in [7] was 0.366 µM (active); in test [15] it was 0.998 µM (active); in [8], 0.419 µM (active); in test [9], 1.13 µM (inactive); in [10] it was 1.35 µM (inactive); in test [16], 0.608 µM (active). The GI50 in test [11] is 0.957 µM (active); in [13], 0.245 µM (active).
